One may read the inhibition as the relative decrease from the control value, in per cent.

In series [1] the test system is A549 tumor cells. The series can be described thus: A549 xenograft model. The class given is in vivo. Here is the method:
Sub-cutaneous (SC) injection of 5×10^6 A549 tumor cells on the left flank of 48 female athymic nude mice. Randomization of mice 14 days after tumor cell injection into 6 groups of 8 mice each with a mean tumor volume of 134±5 mm3.
Formulation: 20% HPC, 2% ethanol solution in PBS for the compounds No. 45, 117 and 179.
• Normal saline for Erlotinib® Dosing route: Oral for the compounds No. 45, 117 and 179, and Erlotinib® Dose Volume: 10 mL/Kg body weight Dosing schedule: Once daily for 14 consecutive days (Q1Dx14) Dosage: • Group1. Vehicle control • Group2. Erlotinib®-100 MPK • Group3. Compound No. 45—10 MPK • Group4. Compound No. 45—30 MPK • Group5. Compound No. 45—100 MPK • Group6. Compound No. 117—30 MPK • Group7. Compound No. 117—100 MPK • Group8. Compound No. 179—10 MPK • Group9. […] Plasma collected for drug concentration estimation and whole blood was collected to isolate PBMCs (peripheral blood monocytes) to determine pStat3 inhibition by flow cytometry as PD readout. Tumors were snap frozen in liquid nitrogen and stored at −80° C. to estimate pStat3 by flow cytometry as PD readout EXPT. 2
SC injection of 5×10^6 A549 tumor cells on the left flank of 24 female athymic nude mice. Randomization of mice 14 days after tumor cell injection into 3 groups of 8 mice each with a mean tumor volume of 75±7 mm3.
Formulation: 20% HPC, 2% ethanol solution in PBS for the compound No. 45
• Normal saline for Erlotinib® Dosing route: Oral for compound No. 45 and Erlotinib® Dose Volume: 10 mL/Kg body weight Dosing schedule: Once daily for 14 consecutive days (Q1Dx14) Dosage: • Group1. Vehicle control • Group2. Compound No. 45—150 MPK • Group3. […] Plasma collected for drug concentration estimation and whole blood was collected to isolate PBMCs to determine pStat3 inhibition by flow cytometry as PD readout. Tumors were snap frozen in liquid nitrogen and stored at −80° C. to estimate pStat3 by flow cytometry as PD readout Results: […]

For series [2] the following is noted: mouse, in vivo.
Series [3] relates to B16F10 tumor cells. The series can be described thus: B16F10 survival model. The format is in vivo, C57B16 mice. As to the method: IV injection of 0.1×10^6 B16F10 tumor cells in the tail vain of 60 male C57B16 mice. Randomization of mice one day after tumor cell injection into 4 groups of 15 mice. Out of 15, 6 mice were sacrificed on 14th day for counting metastatic foci on lungs. Rest 9 mice were dosed continuously till morbidity/mortality for recording survival.
Plasma collected for drug concentration estimation and whole blood was collected to isolate PBMCs to determine pStat3 inhibition by flow cytometry as PD readout.

Series [4] deals with c-Src (Homo sapiens (Human), UniProt P12931). The series can be described thus: TR-FRET c-Src kinase assay. The note with it: ATP 50 μM; for inhibition at 0.1 µM: read-out: c-SRC % inhibition at 100 nM, 100 nM; for inhibition at 1 µM: read-out: c-SRC % inhibition at 1 μM. The format is biochemical. Here is the method:
(§1) Compounds were screened in the TR-FRET assay for JAK2 and c-Src kinase inhibition. Ultra light poly GT (Perkin Elmer) was used as the substrate for JAK2 and c-Src with the ATP concentration of 10 μM and 50 μM, respectively. […] The dose-response curve fitting was done using GraphPad Prism software.
For orientation: In TR-FRET formats the signal depends on donor and acceptor labels being close together.

The target of series [5] is JAK2 (Homo sapiens (Human), UniProt O60674). The series can be described thus: TR-FRET JAK2 kinase assay. The format is biochemical. The conditions noted are these: ATP 10 μM. As to the method:
as §1

Series [6] deals with pStat3. Kind of series: In-Cell-Western blot assay for pStat3 (ICW) in A431 cells. The format is cell-based. The note with it: Homo sapiens, A-431, 2 hrs, read-out: pSTAT3 inhibition. The gist of the method: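 Serum-starved (overnight) A431 cells treated with compound for 2 hrs, then fixed, permeabilized and probed with phospho-Stat3 antibody plus europium-labelled secondary. Europium signal normalized to Hoechst for cell number; IC50 calculated from normalized values.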

The test system of series [7] is pStat3. Kind of series: Quantification of pStat3 in PBMCs by flow cytometry. The format is in vivo, mice. Here is the method:
Phosphorylation of Stat3 was stimulated by addition of hIL6 (10 ug/mL) for 30 min at 37° C. Blood was fixed with formaldehyde (final 2% v/v) for 10 min at 37° C.
Buffy coat (PBMCs) was separated by aspirating translucent layer using pipetteman and washed twice with PBS-1×
Pre chilled PBMC's were permeabilized by adding ice cold Methanol, while vortexing gently (final volume 90% MeOH v/v) and incubated for 30 min on ice.
Permeabilized PBMCs were washed with PBS once. PBMCs re-suspended to 2×10^6 cells in 200 μL of incubation buffer for 10 min at room temperature (RT). Primary Ab was added (1:100 dilution) and incubated 45 min at RT. Washed as before (twice) and re-suspended in fluorochrome conjugated secondary Ab (1:500 dilution) and incubated at RT in dark for 30 min. Washed and re-suspended in […] PBS.
Measured pStat3 using FACS caliber machine (BD). Unstained PBMCs was used for cytometry settings. […] Histograms (cell number V/s FL1-H) were plotted. Percentage of cells that are phosphorylated by IL6 stimulation (M2 population), and inhibition of phosphorylation by inhibitor (decrease in M2 population) are calculated on histogram by marking peaks, M1 and M2.
For orientation: A flow cytometer gives signals particle by particle.

Sequence of JAK2 (O60674 whole entry): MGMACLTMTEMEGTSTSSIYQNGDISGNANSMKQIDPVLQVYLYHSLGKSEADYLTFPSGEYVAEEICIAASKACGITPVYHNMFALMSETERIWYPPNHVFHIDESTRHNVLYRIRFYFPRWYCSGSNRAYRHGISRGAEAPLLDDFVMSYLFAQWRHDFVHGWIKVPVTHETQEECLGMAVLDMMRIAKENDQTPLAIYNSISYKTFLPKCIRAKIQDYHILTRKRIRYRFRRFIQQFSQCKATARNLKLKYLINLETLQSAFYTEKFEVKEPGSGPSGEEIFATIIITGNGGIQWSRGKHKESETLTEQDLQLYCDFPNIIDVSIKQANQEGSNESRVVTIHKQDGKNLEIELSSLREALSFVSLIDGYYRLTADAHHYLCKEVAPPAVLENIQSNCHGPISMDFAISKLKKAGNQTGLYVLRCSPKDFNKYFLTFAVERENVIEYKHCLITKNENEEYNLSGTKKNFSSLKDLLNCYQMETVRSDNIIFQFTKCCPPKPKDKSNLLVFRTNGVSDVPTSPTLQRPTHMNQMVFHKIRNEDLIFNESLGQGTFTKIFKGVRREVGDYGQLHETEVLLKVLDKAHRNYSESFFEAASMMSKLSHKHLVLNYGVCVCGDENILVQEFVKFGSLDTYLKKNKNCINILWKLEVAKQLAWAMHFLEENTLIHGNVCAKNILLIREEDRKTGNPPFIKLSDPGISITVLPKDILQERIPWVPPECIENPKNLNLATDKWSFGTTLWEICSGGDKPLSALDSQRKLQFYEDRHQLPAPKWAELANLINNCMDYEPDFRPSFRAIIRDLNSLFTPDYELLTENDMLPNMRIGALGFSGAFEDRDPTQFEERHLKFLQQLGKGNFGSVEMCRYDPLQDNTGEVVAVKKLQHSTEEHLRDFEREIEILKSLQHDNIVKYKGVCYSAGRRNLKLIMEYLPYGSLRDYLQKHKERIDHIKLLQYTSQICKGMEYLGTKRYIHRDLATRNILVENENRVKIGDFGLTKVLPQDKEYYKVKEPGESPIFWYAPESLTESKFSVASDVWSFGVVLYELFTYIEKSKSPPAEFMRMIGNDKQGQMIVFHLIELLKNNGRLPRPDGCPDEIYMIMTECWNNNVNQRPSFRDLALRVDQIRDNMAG
Sequence of c-Src (P12931 whole entry, looked up): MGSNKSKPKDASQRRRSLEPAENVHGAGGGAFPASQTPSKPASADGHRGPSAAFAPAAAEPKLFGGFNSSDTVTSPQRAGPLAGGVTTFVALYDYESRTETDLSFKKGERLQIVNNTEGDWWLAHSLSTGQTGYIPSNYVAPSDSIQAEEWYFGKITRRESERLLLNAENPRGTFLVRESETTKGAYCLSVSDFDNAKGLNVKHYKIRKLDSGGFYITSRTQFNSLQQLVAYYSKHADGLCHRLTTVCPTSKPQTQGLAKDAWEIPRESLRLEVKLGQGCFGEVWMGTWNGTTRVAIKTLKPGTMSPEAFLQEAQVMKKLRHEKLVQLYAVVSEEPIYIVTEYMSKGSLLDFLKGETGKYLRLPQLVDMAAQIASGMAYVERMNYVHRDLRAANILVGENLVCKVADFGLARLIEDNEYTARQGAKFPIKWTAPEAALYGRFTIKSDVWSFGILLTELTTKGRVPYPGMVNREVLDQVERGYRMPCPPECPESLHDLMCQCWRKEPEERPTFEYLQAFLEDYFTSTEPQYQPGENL

For `Cc1ccc(NC(=O)c2cccc(C(F)(F)F)c2)cc1N1CCc2nc(Nc3ccc(N4CCN(C)CC4)cc3)ncc2C1=O` [Compound 45, N-(4-Methyl-3-{2-[4-(4-methyl-piperazin-1-yl)-phenylamino]-5-oxo-7,8-dihydro-5H-pyrido[4,3-d]pyrimidin-6-yl}-phenyl)-3-trifluoromethyl-benzamide], the “% TGI (Tumor Growth Inhibition)” value came out at 28.90% in series [1] (A549 Xenograft model, 10 MPK); 55.62% in series [1] (A549 Xenograft model, 30 MPK); 63.86% in series [1] (A549 Xenograft model, 100 MPK); 53.74% in series [1] (A549 Xenograft model, 150 MPK). For the same molecule, the TGI amounted to 54 in series [1] (A549 Xenograft model, 150 MPK) and 64% at in series [1] (Efficacy - A549, at 100 MPK). In addition, in series [1] (A549 xenograft model, 100 MPK (Q1Dx14)), the tumor growth inhibition was determined as 64%. Further, the compound related toxicity result in series [1] (up to 150 MPK during A549 efficacy study) is “No major effects of compound related toxicity”. For the same molecule, the good tolerance result in series [2] (athymic, 14 days) is on record as “up to 250 MPK”. In addition, the MTD in series [2] was found to be 250 MPK. The Survival advantage in series [3] (B16F10 survival model, dosing Q1Dx14) is 37.5%; in series [3] (Efficacy - B16F10 at 100 MPK), 9 days. In addition, the IC50 came to 10 nM in series [4], 15 nM in series [5] and 220 nM in series [6]. Also, the “PBMCs % pStat3 inhibition” value is on record as 56.32% in series [7] (A431 Xenograft model, 100 MPK); 55.61% in series [7] (A549 Xenograft model, 10 MPK); 60.66% in series [7] (A549 Xenograft model, 30 MPK); 65.28% in series [7] (A549 Xenograft model, 100 MPK); 76.56% in series [7] (A549 Xenograft model, 150 MPK); 66% in series [7] (B16F10 model, 30 MPK). In addition, in series [7] (B16F10 model, 100 MPK), the “PBMCs % pStat3 inhibition” value is recorded as 73%. Moreover, the “% pSTAT3 inhibition in PBMCs (MTD study)” value in series [7] (at 100 MPK) worked out at 84% at.
As to `Cc1ccc(NC(=O)c2cccc(C(F)(F)F)c2)cc1N1CCc2nc(Nc3ccc(C(=O)NC4CC4)nc3)ncc2C1` [Compound 117, 5-{6-[2-Methyl-5-(3-trifluoromethyl-benzoylamino)-phenyl]-5,6,7,8-tetrahydro-pyrido[4,3-d]pyrimidin-2-ylamino}-pyridine-2-carboxylic acid cyclopropylamide], the TGI in series [1] (Efficacy - A549, at 100 MPK) turned out to be 56% at. In series [2], this molecule showed an MTD of 100 MPK. This molecule also registered a Survival advantage in series [3] (Efficacy - B16F10 at 100 MPK) of 1 day days. In series [4], the inhibition at 0.1 µM worked out at 80%. Moreover, in series [4], the inhibition at 1 µM stood at 96%. Besides, the results for the IC50 in series [5] and in series [6] were 18 nM and 340 nM, respectively. Besides, the “% pSTAT3 inhibition in PBMCs (MTD study)” value in series [7] (at 100 MPK) is recorded as 83% at.
In series [1] (Efficacy - A549, at 30 MPK), `CNC(=O)c1ccc(Nc2ncc3c(n2)CCN(c2cc(NC(=O)c4cc(C(F)(F)F)ccn4)ccc2Cl)C3)cc1` [Compound 179, 4-Trifluoromethyl-pyridine-2-carboxylic acid {4-chloro-3-[2-(4-methylcarbamoyl-phenylamino)-7,8-dihydro-5H-pyrido[4,3-d]pyrimidin-6-yl]-phenyl}-amide] gave a TGI of 68% at. Also, the MTD in series [2] is reported as 30 MPK. The molecule further registered a Survival advantage in series [3] (Efficacy - B16F10 at 100 MPK) of 4 days. Besides, the values for the IC50 in series [4], in series [5] and in series [6] were 15 nM, 6.4 nM and 280 nM, respectively. Besides, the inhibition at 0.1 µM came out at 79% in series [4] and 81% in series [5] (read-out: JAK2 % inhibition at 100 nM, 100 nM). For the same molecule, the inhibition at 1 µM in series [4] was found to be 93%; in series [5] (read-out: JAK2 % inhibition at 1 μM, 1 μM) it was 92%. For the same molecule, in series [7] (at 30 MPK), the “% pSTAT3 inhibition in PBMCs (MTD study)” value is reported as 65% at.

The values above are taken from US8962637B2, “Bicyclic compounds and their uses as dual c-SRC/JAK inhibitors” (Debiopharm S.A., priority 2010, dated 2015).
